Experimental findings from the Deep4Chem optical property database are described below.

A short description of one data set: solvent given as SMILES. The following applies: in C1CCCCC1.
`Nc1ccc2c(c1)Cc1ccccc1-2` registered an emission maximum of 347 nm.

In turn, `CN(C)c1ccc(/C=C/c2ncnc3ccccc23)cc1` registered an emission maximum of 465 nm.

Molecule `O=S1c2ccccc2-c2cc(-c3c4ccccc4cc4ccccc34)ccc21` (stereo not given) came in with an emission maximum of 401.88 nm.

As for `CC1(C)c2cccc(-c3nc(-c4ccccc4)nc(-c4ccccc4)n3)c2Oc2c(-n3c4ccccc4c4ccccc43)cccc21`, the emission maximum is listed as 395 nm.

With `CN(CC(O)c1cccc(O)c1)c1ccc([N+](=O)[O-])c(C2CC(c3cccc4ccccc34)=NN2c2ccccc2)c1` (stereo not given), the emission maximum is listed as 495 nm.

Still in this data set, the particulars now being: in C1CCOC1.
`N#Cc1coc2ccccc2c1=O` gave an emission maximum of 373 nm.

Molecule `C(=C1c2ccccc2CCc2ccccc21)c1ccc(-c2ccc(C=C3c4ccccc4CCc4ccccc43)cc2)cc1` registered an emission maximum of 394 nm.

As for `CN(C)c1ccc(/C=C/c2ncnc3ccccc23)cc1`, the emission maximum is 537 nm.

For `Cn1c(/C=C/c2ccc(/C=C/c3nc4ccccc4[nH]3)cc2)[n+](C)c2ccccc21`, the emission maximum came to 576 nm.

In the case of `CN(CC(O)c1cccc(O)c1)c1ccc([N+](=O)[O-])c(C2CC(c3cccc4ccccc34)=NN2c2ccccc2)c1` (stereo not given), the emission maximum is on record as 467 nm.

The molecule `Cc1cc(-c2ccc(-c3ccccc3)cc2)nc(-c2ccc(-n3c4ccccc4c4ccccc43)cc2)n1` came in with an emission maximum of 418 nm.

For the molecule `CCCCCCCCCCCCn1c(-c2cc(-c3nc4ccc(C)cc4n3CCCCCCCCCCCC)cc(-c3nc4ccc(C)cc4n3CCCCCCCCCCCC)c2)nc2ccc(C)cc21`, the emission maximum was 375.8 nm.

On to `c1ccc(-c2ccc(-c3ccc(-n4c5ccccc5c5ccccc54)cc3)c3nsnc23)cc1`, for which the emission maximum was 527 nm.

The data set is the same for the next values; noted with them: in C1COCCO1.
`Nc1ccc2c(c1)Cc1ccccc1-2` registered an emission maximum of 363 nm.

Molecule `N#Cc1coc2ccccc2c1=O` had an emission maximum of 402 nm.

In the case of `CN(CC(O)c1cccc(O)c1)c1ccc([N+](=O)[O-])c(C2CC(c3cccc4ccccc34)=NN2c2ccccc2)c1` (stereo not given), the emission maximum is given as 454 nm.

`c1ccc(-c2ccc(-c3cc(-c4ccc(-c5ccccc5)cc4)cc(-c4ccc(-c5ccccc5)cc4)c3)cc2)cc1` had an emission maximum of 364 nm.

The data set is the same for the next values; noted with them: in CC1CCCCC1.
Regarding `C(=C\c1ccnc2ccccc12)/c1c2ccccc2cc2ccccc12`, the emission maximum was determined as 498 nm.

Staying with this data set, now noted: in CC1CCCO1.
As for `O=c1cc2c(Br)c(O)c3cccc4ccc(o1)c2c43`, the emission maximum was 484 nm.

The same data set, now with this note: in CC#N.
In the case of `Nc1ccc2c(c1)Cc1ccccc1-2`, the emission maximum is listed as 363 nm.

With `N#Cc1coc2ccccc2c1=O`, the emission maximum is listed as 495 nm.

In turn, `Fc1nc(F)c(F)c(C#Cc2cc3c(cc2C#Cc2c(F)c(F)nc(F)c2F)OC2(CCCCC2)O3)c1F` returned an emission maximum of 460 nm.

`CCCCCCCCCCCCCCCCCCN1C(=O)c2cccc3c(OCCN(C)C)ccc(c23)C1=O` showed an emission maximum of 514 nm.

In the case of `CCC1=C(C)C2=Cc3c4ccccc4c4n3[B-](c3ccccc3)(Oc3ccccc3-4)[N+]2=C1C` (stereo not given), the emission maximum is 634 nm.

Regarding `COc1cc(OC)cc(C2=[O+][B-](F)(F)OC(c3ccccc3)=C2)c1`, the emission maximum was determined as 602.29 nm.

Molecule `C#CCn1c2ccccc2c2cc(/C=C/c3cc(C)c4n3[B-](F)(F)[N+]3=C(C)C=C(C)C3=C4c3ccc(I)cc3)ccc21` showed an emission maximum of 605 nm.

Consider `CN(C)c1ccc(/C=C/c2ncnc3ccccc23)cc1`, for which the emission maximum stood at 572 nm.

The molecule `Cn1c(/C=C/c2ccc(/C=C/c3nc4ccccc4[nH]3)cc2)[n+](C)c2ccccc21` gave an emission maximum of 576 nm.

In turn, `CCOC(=O)c1c2c3c(ccc(F)c3c3cc4ccccc4cc13)N(C)C2=O` returned an emission maximum of 415 nm.

As to `O=S1c2ccccc2-c2cc(-c3c4ccccc4cc4ccccc34)ccc21` (stereo not given), the emission maximum turned out to be 504.43 nm.

In turn, `CN(CC(O)c1cccc(O)c1)c1ccc([N+](=O)[O-])c(C2CC(c3cccc4ccccc34)=NN2c2ccccc2)c1` (stereo not given) returned an emission maximum of 526 nm.

Turning to `C(=C\c1ccnc2ccccc12)/c1c2ccccc2cc2ccccc12`, the emission maximum worked out at 530 nm.

In the case of `O=c1cccc2n1C[C@@H]1CNC[C@H]2C1`, the emission maximum was 380 nm.

The molecule `c1ccc(-c2cc(-c3ccc(N(c4ccccc4)c4ccccc4)cc3)cc(-c3ccccc3)n2)cc1` displayed an emission maximum of 489 nm.

Molecule `N#Cc1nn(-c2ccccc2Cl)nc1N1CCCC1` returned an emission maximum of 426 nm.

Staying with this data set, now noted: in CC(C)=O.
In the case of `CCCCCCCCCCCCCCCCCCN1C(=O)c2cccc3c(OCCN(C)C)ccc(c23)C1=O`, the emission maximum is given as 507 nm.

`COc1cc(OC)cc(C2=[O+][B-](F)(F)OC(c3ccccc3)=C2)c1` had an emission maximum of 590.78 nm.

`Cn1c(/C=C/c2ccc(/C=C/c3nc4ccccc4[nH]3)cc2)[n+](C)c2ccccc21`: the emission maximum is listed as 580 nm.

For `CC1(C)c2cccc(-c3nc(-c4ccccc4)nc(-c4ccccc4)n3)c2Oc2c(-n3c4ccccc4c4ccccc43)cccc21`, the emission maximum worked out at 469 nm.

For `c1ccc(-c2ccc(-c3ccc(-n4c5ccccc5c5ccccc54)cc3)c3nsnc23)cc1`, the emission maximum came out at 562 nm.

Staying with this data set, now noted: in CC(C)O.
On to `Nc1ccc2c(c1)Cc1ccccc1-2`, for which the emission maximum amounted to 369 nm.

For the molecule `N#Cc1coc2ccccc2c1=O`, the emission maximum came to 411 nm.

Molecule `CN(CC(O)c1cccc(O)c1)c1ccc([N+](=O)[O-])c(C2CC(c3cccc4ccccc34)=NN2c2ccccc2)c1` (stereo not given) showed an emission maximum of 511 nm.

Still in this data set, the particulars now being: in CCCCCC.
The molecule `Nc1ccc2c(c1)Cc1ccccc1-2` yielded an emission maximum of 344 nm.

Take `CCC1=C(C)C2=Cc3c4ccccc4c4n3[B-](c3ccccc3)(Oc3ccccc3-4)[N+]2=C1C` (stereo not given): the emission maximum is recorded as 636 nm.

Take `COc1cc(OC)cc(C2=[O+][B-](F)(F)OC(c3ccccc3)=C2)c1`: the emission maximum is given as 446.17 nm.

`c1ccc(-c2cc(-c3ccc(N(c4ccccc4)c4ccccc4)cc3)cc(-c3ccccc3)n2)cc1` yielded an emission maximum of 393 nm.

In turn, `c1ccc(-c2ccc(-c3ccc(-n4c5ccccc5c5ccccc54)cc3)c3nsnc23)cc1` returned an emission maximum of 481 nm.

The same data set, now with this note: in CCCCCCC.
In turn, `Nc1ccc2c(c1)Cc1ccccc1-2` showed an emission maximum of 344 nm.

Staying with this data set, now noted: in CCCCO.
`N#Cc1coc2ccccc2c1=O`: the emission maximum is recorded as 500 nm.

Still in this data set, the particulars now being: in CCCO.
Turning to `N#Cc1coc2ccccc2c1=O`, the emission maximum is recorded as 440 nm.

Staying with this data set, now noted: in CCO.
`Nc1ccc2c(c1)Cc1ccccc1-2`: the emission maximum was 368 nm.

The molecule `CCCCCCCCCCCCCCCCCCN1C(=O)c2cccc3c(OCCN(C)C)ccc(c23)C1=O` yielded an emission maximum of 510 nm.

`CC1(C)C(/C=C/c2cc3ccc(O)cc3oc2=O)=[N+](CCCS(=O)(=O)[O-])c2ccc(S(=O)(=O)O)cc21` returned an emission maximum of 648 nm.

In the case of `CC/[NH+]=c1\cc2oc3cc(NCCC(=O)O)c4ccccc4c3nc-2cc1C`, the emission maximum was 644 nm.

The molecule `c1ccc(-c2cc(-c3ccc(N(c4ccccc4)c4ccccc4)cc3)cc(-c3ccccc3)n2)cc1` returned an emission maximum of 505 nm.

Staying with this data set, now noted: in CCOC(C)=O.
The molecule `Nc1ccc2c(c1)Cc1ccccc1-2` had an emission maximum of 360 nm.

`N#Cc1coc2ccccc2c1=O` had an emission maximum of 495 nm.

In turn, `CCCCCCCCCCCCCCCCCCN1C(=O)c2cccc3c(OCCN(C)C)ccc(c23)C1=O` returned an emission maximum of 497 nm.

`CN(CC(O)c1cccc(O)c1)c1ccc([N+](=O)[O-])c(C2CC(c3cccc4ccccc34)=NN2c2ccccc2)c1` (stereo not given) returned an emission maximum of 498 nm.
